Laboratory results as given in ChEMBL document CHEMBL1938320, “Biological evaluation and docking studies of recently identified inhibitors of phosphoinositide-3-kinases” (Bioorg Med Chem Lett, 2012).
The source made the active and inactive calls. The rule behind the calls is not given here.

Assays:
HCT-116 [1] = assay: Growth inhibition of human HCT116 cells overexpressing PI3Kalpha after 48 hrs by MTT assay; type: functional, cell-based; settings: HCT-116, 48 h
HCT-116 [2] = assay: Growth inhibition of human HCT116 cells overexpressing PI3Kalpha H1047R mutant after 48 hrs by MTT assay; type: functional, cell-based; settings: HCT-116, 48 h
[3] = molecular target: Phosphatidylinositol 4,5-bisphosphate 3-kinase catalytic subunit alpha isoform (Homo sapiens) (UniProt P42336); assay: Inhibition of PI3Kalpha in human HCT116 cells using [32P]ATP at 25 uM after 10 mins; type: cell-based; settings: HCT-116
Chain of Phosphatidylinositol 4,5-bisphosphate 3-kinase catalytic subunit alpha isoform (Homo sapiens) (P42336 whole entry, canonical isoform): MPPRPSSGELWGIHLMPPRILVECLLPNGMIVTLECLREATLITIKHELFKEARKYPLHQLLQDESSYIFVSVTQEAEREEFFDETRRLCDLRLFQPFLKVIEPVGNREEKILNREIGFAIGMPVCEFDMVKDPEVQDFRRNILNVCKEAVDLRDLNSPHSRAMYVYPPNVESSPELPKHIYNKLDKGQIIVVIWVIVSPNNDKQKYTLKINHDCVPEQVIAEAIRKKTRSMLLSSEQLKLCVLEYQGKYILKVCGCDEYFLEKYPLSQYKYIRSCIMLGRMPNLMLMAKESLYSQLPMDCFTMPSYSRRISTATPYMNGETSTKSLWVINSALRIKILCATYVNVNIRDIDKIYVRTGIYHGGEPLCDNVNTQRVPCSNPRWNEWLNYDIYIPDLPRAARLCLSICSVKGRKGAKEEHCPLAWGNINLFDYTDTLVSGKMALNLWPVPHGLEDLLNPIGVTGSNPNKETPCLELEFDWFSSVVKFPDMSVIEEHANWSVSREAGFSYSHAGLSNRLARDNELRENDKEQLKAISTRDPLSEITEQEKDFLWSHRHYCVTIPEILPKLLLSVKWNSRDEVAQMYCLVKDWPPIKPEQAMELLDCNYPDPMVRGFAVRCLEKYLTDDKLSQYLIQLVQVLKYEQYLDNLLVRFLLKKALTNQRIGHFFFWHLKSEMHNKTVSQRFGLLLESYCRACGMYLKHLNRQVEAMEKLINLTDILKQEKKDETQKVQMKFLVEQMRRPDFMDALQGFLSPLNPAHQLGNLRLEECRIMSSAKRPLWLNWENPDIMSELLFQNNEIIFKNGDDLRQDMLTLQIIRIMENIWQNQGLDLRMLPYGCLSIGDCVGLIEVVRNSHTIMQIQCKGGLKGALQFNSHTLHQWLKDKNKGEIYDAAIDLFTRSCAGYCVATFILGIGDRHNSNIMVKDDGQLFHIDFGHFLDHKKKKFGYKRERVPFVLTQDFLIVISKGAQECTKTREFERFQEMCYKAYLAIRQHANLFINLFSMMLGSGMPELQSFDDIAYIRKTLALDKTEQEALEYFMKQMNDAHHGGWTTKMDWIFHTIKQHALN

[4] = tested on: Phosphatidylinositol 4,5-bisphosphate 3-kinase catalytic subunit alpha isoform (Homo sapiens), P42336 [H1047R]; assay: Inhibition of PI3Kalpha H1047R mutant in human HCT116 cells using [32P]ATP at 25 uM after 10 mins; type: cell-based; settings: HCT-116
Chain of Phosphatidylinositol 4,5-bisphosphate 3-kinase catalytic subunit alpha isoform (Homo sapiens), P42336 [H1047R] (P42336 whole entry H1047R, canonical isoform): as the sequence (P42336 whole entry, canonical isoform) above, with H1047R counted along it

[5] = molecular target: Phosphatidylinositol 4,5-bisphosphate 3-kinase catalytic subunit alpha isoform (Homo sapiens) (UniProt P42336); assay: Inhibition of PI3Kalpha in human HCT116 cells assessed as inhibition of Akt Ser473 phosphorylation at 25 uM by immunoblot analysis; type: cell-based; settings: HCT-116
[6] = tested on: Phosphatidylinositol 4,5-bisphosphate 3-kinase catalytic subunit alpha isoform (Homo sapiens), P42336 [H1047R]; assay: Inhibition of PI3Kalpha H1047R mutant in human HCT116 cells assessed as inhibition of Akt Ser473 phosphorylation at 25 uM by immunoblot analysis; type: cell-based; settings: HCT-116
HCT-116 [7] = assay: Inhibition of Akt expression in human HCT116 cells at 10 uM by immunoblot analysis; type: functional, cell-based
HCT-116 [8] = assay: Induction of apoptosis in human HCT116 cells assessed DNA fragmentation at 25 uM after 48 hrs by ELISA relative to control; type: functional
HCT-116 [9] = assay: Induction of apoptosis in human HCT116 cells overexpressing PI3Kalpha assessed DNA fragmentation at 25 uM after 48 hrs by ELISA relative to control; type: functional
HCT-116 [10] = assay: Induction of apoptosis in human HCT116 cells overexpressing PI3Kalpha H1047R mutant assessed DNA fragmentation at 25 uM after 48 hrs by ELISA relative to control; type: functional
HCT-116 [11] = assay: cells; settings: Homo sapiens, HCT-116, 48 h
Description: Growth inhibition of human HCT116 cells after 48 hrs by MTT assay

[12] = molecular target: Phosphatidylinositol 4,5-bisphosphate 3-kinase catalytic subunit alpha isoform (Homo sapiens) (UniProt P42336); assay: Inhibition of PI3Kalpha in human HCT116 cells using [32P]ATP at 10 uM after 10 mins; type: cell-based; settings: HCT-116
[13] = tested on: Phosphatidylinositol 4,5-bisphosphate 3-kinase catalytic subunit alpha isoform (Homo sapiens), P42336 [H1047R]; assay: Inhibition of PI3Kalpha H1047R mutant in human HCT116 cells using [32P]ATP at 10 uM after 10 mins; type: cell-based; settings: HCT-116
[14] = molecular target: Phosphatidylinositol 4,5-bisphosphate 3-kinase catalytic subunit alpha isoform (Homo sapiens) (UniProt P42336); assay: Inhibition of PI3Kalpha in human HCT116 cells assessed as inhibition of Akt Ser473 phosphorylation at 10 uM by immunoblot analysis; type: cell-based; settings: HCT-116
[15] = tested on: Phosphatidylinositol 4,5-bisphosphate 3-kinase catalytic subunit alpha isoform (Homo sapiens), P42336 [H1047R]; assay: Inhibition of PI3Kalpha H1047R mutant in human HCT116 cells assessed as inhibition of Akt Ser473 phosphorylation at 10 uM by immunoblot analysis; type: cell-based; settings: HCT-116

SMILES: O=C(NCc1ccccc1)c1c(O)nc2ccccc2c1O
- IC50 (HCT-116 [1]): 1.1 µM
- IC50 (HCT-116 [2]): 0.73 µM
- inhibition [3]: Active
- inhibition [4]: Active
- inhibition [5]: Active
- inhibition [6]: Active
- inhibition (HCT-116 [7]): inactive
- fold change (FC) (HCT-116 [8]): 2.9
- fold change (FC) (HCT-116 [9]): 3.2
- fold change (FC) (HCT-116 [10]): 11
- IC50 (HCT-116 [11]): 1.8 µM

SMILES: COc1ccc(C(=O)c2ccccc2C(=O)O)c(O)c1
- IC50 (HCT-116 [1]): 31 µM
- IC50 (HCT-116 [2]): 18 µM
- inhibition [3]: Active
- inhibition [4]: Active
- inhibition [5]: Active
- inhibition [6]: Active
- inhibition (HCT-116 [7]): inactive
- fold change (FC) (HCT-116 [8]): 1.8
- fold change (FC) (HCT-116 [9]): 1.3
- fold change (FC) (HCT-116 [10]): 3
- IC50 (HCT-116 [11]): 13 µM

SMILES: Cc1cc(O)c2c(c1)C(=O)c1cc(O)cc(O)c1C2=O [EMODIN]
- IC50 (HCT-116 [1]): 5.3 µM
- IC50 (HCT-116 [2]): 3.8 µM
- inhibition [12]: Active
- inhibition [13]: Active
- inhibition [14]: Active
- inhibition [15]: Active
- inhibition (HCT-116 [7]): Active
- fold change (FC) (HCT-116 [8]): 8.6
- fold change (FC) (HCT-116 [9]): 12
- fold change (FC) (HCT-116 [10]): 13
- IC50 (HCT-116 [11]): 6.2 µM

SMILES: O=c1cc(N2CCOCC2)oc2c(-c3ccccc3)cccc12 [LY-294002]
- inhibition [12]: Active
- inhibition [13]: Active
- inhibition [14]: Active
- inhibition [15]: Active
- inhibition (HCT-116 [7]): inactive
- fold change (FC) (HCT-116 [8]): 3.8
- fold change (FC) (HCT-116 [9]): 8.5
- fold change (FC) (HCT-116 [10]): 8.6

SMILES: O=c1c(O)c(-c2cc(O)c(O)c(O)c2)oc2cc(O)cc(O)c12 [MYRICETIN]
- inhibition [3]: Active
- inhibition [4]: Active
- inhibition [5]: Active
- inhibition [6]: Active
- inhibition (HCT-116 [7]): inactive

SMILES: O=c1c(O)c(-c2ccc(O)c(O)c2)oc2cc(O)cc(O)c12 [QUERCETIN]
- IC50 (HCT-116 [1]): 23 µM
- IC50 (HCT-116 [2]): 5.7 µM
- inhibition [3]: Active
- inhibition [4]: Active
- inhibition [5]: Active
- inhibition [6]: Active
- inhibition (HCT-116 [7]): inactive
- fold change (FC) (HCT-116 [8]): 1
- fold change (FC) (HCT-116 [9]): 2.5
- fold change (FC) (HCT-116 [10]): 4
- IC50 (HCT-116 [11]): 6.7 µM
